ChEMBL document CHEMBL3994647, “Synthesis and in vitro cytotoxic evaluation of new 1H-benzo[d]imidazole derivatives of dehydroabietic acid” (Bioorg Med Chem Lett, 2017)
pIC50: −log10 of the molar value.

Key:
HepG2 = assay: Cytotoxicity against human HepG2 cells assessed as reduction in cell viability after 48 hrs by MTT assay; type: functional, cell-based; settings: HepG2, 48 h
SMMC-7721 [1] = assay: Cytotoxicity against human SMMC7721 cells assessed as reduction in cell viability after 48 hrs by MTT assay; type: functional, cell-based; settings: SMMC-7721, 48 h
L02 = assay: Cytotoxicity against human LO2 cells assessed as reduction in cell viability after 48 hrs by MTT assay; type: cell-based; settings: L02, 48 h
SMMC-7721 [2] = assay: Induction of apoptosis in human SMMC7721 cells assessed as early apoptotic cells at 0.72 uM after 24 hrs by Annexin V-APC/7-AAD staining based flow cytometry (reference value: 7.44%); type: functional
SMMC-7721 [3] = assay: Cell cycle arrest in human SMMC7721 cells assessed as accumulation at G2/M phase at 0.18 uM after 24 hrs by propidium iodide staining based flow cytometry (reference value: 3.43%); type: functional
SMMC-7721 [4] = assay: Induction of apoptosis in human SMMC7721 cells assessed as late apoptotic cells at 0.18 uM after 24 hrs by Annexin V-APC/7-AAD staining based flow cytometry (reference value: 10.72%); type: functional
SMMC-7721 [5] = assay: Induction of apoptosis in human SMMC7721 cells assessed as necrotic cells at 0.72 uM after 24 hrs by Annexin V-APC/7-AAD staining based flow cytometry (reference value: 0.77%); type: functional
SMMC-7721 [6] = assay: Cell cycle arrest in human SMMC7721 cells assessed as accumulation at G2/M phase at 0.36 uM after 24 hrs by propidium iodide staining based flow cytometry (reference value: 3.43%); type: functional
SMMC-7721 [7] = assay: Cell cycle arrest in human SMMC7721 cells assessed as accumulation at S phase at 0.36 uM after 24 hrs by propidium iodide staining based flow cytometry (reference value: 23.68%); type: functional
SMMC-7721 [8] = assay: Cell cycle arrest in human SMMC7721 cells assessed as accumulation at G2/M phase at 0.72 uM after 24 hrs by propidium iodide staining based flow cytometry (reference value: 3.43%); type: functional
SMMC-7721 [9] = assay: Induction of apoptosis in human SMMC7721 cells assessed as early apoptotic cells at 0.18 uM after 24 hrs by Annexin V-APC/7-AAD staining based flow cytometry (reference value: 7.44%); type: functional
SMMC-7721 [10] = assay: Induction of apoptosis in human SMMC7721 cells assessed as late apoptotic cells at 0.72 uM after 24 hrs by Annexin V-APC/7-AAD staining based flow cytometry (reference value: 10.72%); type: functional
SMMC-7721 [11] = assay: Induction of apoptosis in human SMMC7721 cells after 24 hrs by Annexin V-APC/7-AAD staining based flow cytometry; type: functional, cell-based
SMMC-7721 [12] = assay: Cell cycle arrest in human SMMC7721 cells assessed as accumulation at S phase at 0.18 uM after 24 hrs by propidium iodide staining based flow cytometry (reference value: 23.68%); type: functional
SMMC-7721 [13] = assay: Cell cycle arrest in human SMMC7721 cells assessed as accumulation at G0/G1 phase at 0.72 uM after 24 hrs by propidium iodide staining based flow cytometry (reference value: 72.89%); type: functional
SMMC-7721 [14] = assay: Induction of apoptosis in human SMMC7721 cells assessed as early apoptotic cells at 0.36 uM after 24 hrs by Annexin V-APC/7-AAD staining based flow cytometry (reference value: 7.44%); type: functional
SMMC-7721 [15] = assay: Induction of apoptosis in human SMMC7721 cells assessed as live cells at 0.18 uM after 24 hrs by Annexin V-APC/7-AAD staining based flow cytometry (reference value: 81.07%); type: functional
SMMC-7721 [16] = assay: Cell cycle arrest in human SMMC7721 cells assessed as accumulation at G2/M phase after 24 hrs by propidium iodide staining based flow cytometry; type: functional
SMMC-7721 [17] = assay: Induction of apoptosis in human SMMC7721 cells assessed as necrotic cells at 0.18 uM after 24 hrs by Annexin V-APC/7-AAD staining based flow cytometry (reference value: 0.77%); type: functional
SMMC-7721 [18] = assay: Cell cycle arrest in human SMMC7721 cells assessed as accumulation at S phase at 0.72 uM after 24 hrs by propidium iodide staining based flow cytometry (reference value: 23.68%); type: functional
SMMC-7721 [19] = assay: Induction of apoptosis in human SMMC7721 cells assessed as live cells at 0.72 uM after 24 hrs by Annexin V-APC/7-AAD staining based flow cytometry (reference value: 81.07%); type: functional
SMMC-7721 [20] = assay: Cell cycle arrest in human SMMC7721 cells assessed as accumulation at G0/G1 phase at 0.18 uM after 24 hrs by propidium iodide staining based flow cytometry (reference value: 72.89%); type: functional
SMMC-7721 [21] = assay: Induction of apoptosis in human SMMC7721 cells assessed as live cells at 0.36 uM after 24 hrs by Annexin V-APC/7-AAD staining based flow cytometry (reference value: 81.07%); type: functional
SMMC-7721 [22] = assay: Induction of apoptosis in human SMMC7721 cells assessed as necrotic cells at 0.36 uM after 24 hrs by Annexin V-APC/7-AAD staining based flow cytometry (reference value: 0.77%); type: functional
SMMC-7721 [23] = assay: Cell cycle arrest in human SMMC7721 cells assessed as accumulation at G0/G1 phase at 0.36 uM after 24 hrs by propidium iodide staining based flow cytometry (reference value: 72.89%); type: functional
SMMC-7721 [24] = assay: Induction of apoptosis in human SMMC7721 cells assessed as late apoptotic cells at 0.36 uM after 24 hrs by Annexin V-APC/7-AAD staining based flow cytometry (reference value: 10.72%); type: functional

COC(=O)[C@]1(C)CCC[C@]2(C)c3cc(Br)c4nc(NCc5cc(F)ccc5O)[nH]c4c3CC[C@@H]12
pIC50 (HepG2): 5.34 | pIC50 (SMMC-7721 [1]): 4.98 | pIC50 (L02): 4.50

COC(=O)[C@]1(C)CCC[C@]2(C)c3cc(Br)c([N+](=O)[O-])c([N+](=O)[O-])c3CC[C@@H]12
pIC50 (HepG2): 4.47 | pIC50 (SMMC-7721 [1]): 4.53 | pIC50 (L02): < 4.30

COC(=O)[C@]1(C)CCC[C@]2(C)c3cc(Br)c4nc(NCc5ccc(F)cc5O)[nH]c4c3CC[C@@H]12
pIC50 (HepG2): 5.34 | pIC50 (SMMC-7721 [1]): 4.98 | pIC50 (L02): 4.66

COC(=O)[C@]1(C)CCC[C@]2(C)c3cc(Br)c4nc(/N=C/c5cccc(F)c5O)[nH]c4c3CC[C@@H]12
pIC50 (HepG2): 6.37 | pIC50 (SMMC-7721 [1]): 5.70 | pIC50 (L02): 5.08

COC(=O)[C@]1(C)CCC[C@]2(C)c3cc(Br)c4nc(/N=C/c5cc(Cl)ccc5O)[nH]c4c3CC[C@@H]12
pIC50 (HepG2): 5.74 | pIC50 (SMMC-7721 [1]): 5.66 | pIC50 (L02): 5.18

CCN(CC)c1ccc(CNc2nc3c(Br)cc4c(c3[nH]2)CC[C@H]2[C@](C)(C(=O)OC)CCC[C@]42C)c(O)c1
pIC50 (HepG2): 5.47 | pIC50 (SMMC-7721 [1]): 5.42 | pIC50 (L02): 4.91

COC(=O)[C@]1(C)CCC[C@]2(C)c3cc(Br)c4nc(NCc5ccccc5O)[nH]c4c3CC[C@@H]12
pIC50 (HepG2): 4.65 | pIC50 (SMMC-7721 [1]): 5.50 | pIC50 (L02): < 4.30

COC(=O)[C@]1(C)CCC[C@]2(C)c3cc(Br)c4nc(NCc5cc(Br)ccc5O)[nH]c4c3CC[C@@H]12
pIC50 (HepG2): 5.38 | pIC50 (SMMC-7721 [1]): 5.40 | pIC50 (L02): 4.67

COC(=O)[C@]1(C)CCC[C@]2(C)c3cc(Br)c4nc(/N=C/c5cc(Cl)cc(Cl)c5O)[nH]c4c3CC[C@@H]12
pIC50 (HepG2): 6.16 | pIC50 (SMMC-7721 [1]): 5.76 | pIC50 (L02): 5.14

COC(=O)[C@]1(C)CCC[C@]2(C)c3cc(Br)c4nc(NCc5cc([N+](=O)[O-])ccc5O)[nH]c4c3CC[C@@H]12
pIC50 (HepG2): 5.26 | pIC50 (SMMC-7721 [1]): 5.86 | pIC50 (L02): 4.74

COC(=O)[C@]1(C)CCC[C@]2(C)c3cc(Br)c4nc(NCc5cc(C)ccc5O)[nH]c4c3CC[C@@H]12
pIC50 (HepG2): 5.21 | pIC50 (SMMC-7721 [1]): 6.08 | pIC50 (L02): 4.76

COC(=O)[C@]1(C)CCC[C@]2(C)c3cc(Br)c4nc(/N=C/c5ccc(F)cc5O)[nH]c4c3CC[C@@H]12
pIC50 (HepG2): 5.91 | pIC50 (SMMC-7721 [1]): 4.91 | pIC50 (L02): 4.72

COC(=O)[C@]1(C)CCC[C@]2(C)c3cc(Br)c4nc(NCc5cccc(F)c5O)[nH]c4c3CC[C@@H]12
pIC50 (HepG2): 5.78 | pIC50 (SMMC-7721 [1]): 5.37 | pIC50 (L02): 4.90

COC(=O)[C@]1(C)CCC[C@]2(C)c3cc(Br)c4nc(/N=C/c5ccc6ccccc6c5O)[nH]c4c3CC[C@@H]12
pIC50 (HepG2): 5.97 | pIC50 (SMMC-7721 [1]): 5.68 | pIC50 (L02): 4.97

COC(=O)[C@]1(C)CCC[C@]2(C)c3cc(Br)c4nc(NCc5cc(Cl)ccc5O)[nH]c4c3CC[C@@H]12
pIC50 (HepG2): 4.93 | pIC50 (SMMC-7721 [1]): 5.50 | pIC50 (L02): 4.57

COc1cc([C@@H]2c3cc4c(cc3[C@@H](O[C@@H]3O[C@@H]5CO[C@@H](C)O[C@H]5[C@H](O)[C@H]3O)[C@H]3COC(=O)[C@H]23)OCO4)cc(OC)c1O [ETOPOSIDE]
pIC50 (HepG2): 6.08 | pIC50 (SMMC-7721 [1]): 6.82 | pIC50 (L02): 5.42

COC(=O)[C@]1(C)CCC[C@]2(C)c3cc(Br)c4nc(N)[nH]c4c3CC[C@@H]12
pIC50 (HepG2): 4.82 | pIC50 (SMMC-7721 [1]): 5.06 | pIC50 (L02): < 4.30

COC(=O)[C@]1(C)CCC[C@]2(C)c3cc(Br)c4nc(/N=C/c5ccccc5O)[nH]c4c3CC[C@@H]12
pIC50 (HepG2): 6.68 | pIC50 (SMMC-7721 [1]): 5.61 | pIC50 (L02): 5.20

COC(=O)[C@]1(C)CCC[C@]2(C)c3cc(Br)c4nc(/N=C/c5cc(C)ccc5O)[nH]c4c3CC[C@@H]12
pIC50 (HepG2): 6.92 | pIC50 (SMMC-7721 [1]): 6.25 | pIC50 (L02): 5.52

COC(=O)[C@]1(C)CCC[C@]2(C)c3cc(Br)c4nc(/N=C/c5cc(F)ccc5O)[nH]c4c3CC[C@@H]12
Activity (SMMC-7721 [2]): 9.75% | pIC50 (HepG2): 6.21 | Activity (SMMC-7721 [3]): 5.96% | Activity (SMMC-7721 [4]): 10.44% | Activity (SMMC-7721 [5]): 1% | Activity (SMMC-7721 [6]): 6.45% | Activity (SMMC-7721 [7]): 19.61% | Activity (SMMC-7721 [8]): 10.91% | Activity (SMMC-7721 [9]): 12.71% | Activity (SMMC-7721 [10]): 81.27% | Activity (SMMC-7721 [11]): Dose-dependent effect | Activity (SMMC-7721 [12]): 17.11% | Activity (SMMC-7721 [13]): 66.4% | Activity (SMMC-7721 [14]): 29.05% | pIC50 (SMMC-7721 [1]): 6.44 | Activity (SMMC-7721 [15]): 75.91% | Activity (SMMC-7721 [16]): Dose-dependent effect | Activity (SMMC-7721 [17]): 0.95% | Activity (SMMC-7721 [18]): 22.69% | Activity (SMMC-7721 [19]): 7.97% | Activity (SMMC-7721 [20]): 76.93% | Activity (SMMC-7721 [21]): 59.86% | Activity (SMMC-7721 [22]): 0.87% | Activity (SMMC-7721 [23]): 73.94% | Activity (SMMC-7721 [24]): 10.21% | pIC50 (L02): 5.41

COC(=O)[C@]1(C)CCC[C@]2(C)c3cc(Br)c4nc(NCc5cc(Cl)cc(Cl)c5O)[nH]c4c3CC[C@@H]12
pIC50 (HepG2): 5.62 | pIC50 (SMMC-7721 [1]): 6.03 | pIC50 (L02): 5.14

CCN(CC)c1ccc(/C=N/c2nc3c(Br)cc4c(c3[nH]2)CC[C@H]2[C@](C)(C(=O)OC)CCC[C@]42C)c(O)c1
pIC50 (HepG2): 6.80 | pIC50 (SMMC-7721 [1]): 6.06 | pIC50 (L02): 5.54

COC(=O)[C@]1(C)CCC[C@]2(C)c3cc(Br)c4nc(/N=C/c5cc(Br)ccc5O)[nH]c4c3CC[C@@H]12
pIC50 (HepG2): 6.14 | pIC50 (SMMC-7721 [1]): 5.55 | pIC50 (L02): 5.14

COC(=O)[C@]1(C)CCC[C@]2(C)c3cc(Br)c4nc(/N=C/c5cc([N+](=O)[O-])ccc5O)[nH]c4c3CC[C@@H]12
pIC50 (HepG2): 5.62 | pIC50 (SMMC-7721 [1]): 5.89 | pIC50 (L02): 5.06

COC(=O)[C@]1(C)CCC[C@]2(C)c3cc(Br)c(N)c(N)c3CC[C@@H]12
pIC50 (HepG2): < 4.30 | pIC50 (SMMC-7721 [1]): < 4.30 | pIC50 (L02): < 4.30

COC(=O)[C@]1(C)CCC[C@]2(C)c3cc(Br)c4nc(NCc5ccc6ccccc6c5O)[nH]c4c3CC[C@@H]12
pIC50 (HepG2): 4.67 | pIC50 (SMMC-7721 [1]): 4.65 | pIC50 (L02): < 4.30
